# In patent publication US20120283334A1, “Treatment of Viral Infections” (Biocopea, Ltd., priority 2009, published 2012):
# Tested on: influenza (A/PR/8/34), H1N1 virus
# Assay: In vivo mouse influenza challenge, bupropion metabolite by oral gavage
# Conditions: H1N1-infected mice
# Description: 6) In Vivo Mouse Studies Using Bupropion Metabolite
# The bupropion metabolite known as 2-(1,1-dimethylethyl)amino-1-(3-chlorophenyl)propan-1-ol (BC1053), in 10% ethanol, was delivered orally to influenza infected mice, as follows.
# Two groups of n=12 C57BLK/6 barrier reared female mice (6-8 weeks old, and between 15-18 g in weight) were intranasally challenged with a lethal dose of influenza (A/PR/8/34). On day 3 post-challenge, the animals received the following treatments: group A received an oral gavage of 100 μl of 10% Ethanol in water; and group B received an oral gavage of 100 μl containing 540 μg of bupropion metabolite in 10% Ethanol in water.
# The animals were weighed and monitored daily for morbidity and mortality up to day 6, when all animals were culled. Average weight loss per group and survival were calculated.
# As described above, mice were infected with a H1N1 virus which was allowed to become established in each of the subjects. Each test mouse was then treated with 2-(1,1-dimethylethyl)amino-1-(3-chlorophenyl)propan-1-ol (i.e. a bupropion metabolite, BC1053) with a single dose on day 3 after infection with the virus. In the control mice, no metabolite was administered. The weight loss of both treated and untreated mice was then determined.
smiles,measurement,setting,value
"CC(NC(C)(C)C)C(O)c1cccc(Cl)c1 (centres unmarked) [BC1053, 2-(1,1-dimethylethyl)amino-1-(3-chlorophenyl)propan-1-ol]",lower reduction in weight loss than the control mice,"single oral dose 540 μg on day 3, FIG. 4",≥ 30%
same,"higher survival rate than the control, untreated mice","single oral dose 540 μg on day 3, FIG. 5",about 30%
